# Measurements: patent US20240360165A1, “INHIBITORS OF CYCLIN DEPENDENT KINASE 7 (CDK7)” (Syros Pharmaceuticals, Inc., priority 2016, published 2024)
# Like-named read-outs stand apart in the source and are kept apart here.
# Tests used:
# [1] = biological target: CDK7/Cyclin H/MAT1 complex (Homo sapiens, UniProt P50613); assay: CDK7 inhibition assay (Caliper/LabChip EZ Reader kinase assay); format: biochemical; conditions: Table 1; CDK7/Cyclin H/MAT1 6 nM, ATP 2 mM, 35 min at 27° C.
# Procedure, shortened: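 A Perkin Elmer Caliper/LabChip EZ Reader (Waltham, MA) platform served as the basis for this CDK7 kinase inhibition assay. The work was carried out by Biortus Biosciences, located in Jiangyin, Jiangsu Province, P.R. of China. Each CDK studied had its own kinase assay, and compounds were evaluated for their ability to block CDK7 activity.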
# [2] = biological target: T1, CDK12 (aa686-1082)/Cyclin K complex (Homo sapiens, UniProt Q9NYV4); assay: CDK12 inhibition assay (Caliper/LabChip EZ Reader kinase assay); format: biochemical; conditions: Table 1; CDK12 (aa686-1082)/Cyclin K 50 nM, ATP 2 mM, 3 hr at 27° C.
# T1 construct: CDK12 (aa686-1082)/Cyclin K complex
# CDK9/Cyclin T1 complex = CDK9/Cyclin T1 complex (Homo sapiens, UniProt P50750); assay: CDK9 inhibition assay (Caliper/LabChip EZ Reader kinase assay); format: biochemical; conditions: Table 1; CDK9/Cyclin T1 8 nM, ATP 2 mM, 15 min at 27° C.
# Procedure, shortened: (§1)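 Caliper/LabChip EZ Reader mobility-shift assays. CDK9/Cyclin T1 at 8 nM with 2 μM 5-FAM-CDK9tide peptide and 10 mM MgCl2; CDK2/Cyclin E1 at 0.5 nM with 2 μM 5-FAM-CDK7tide and 2 mM MgCl2.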
# HCC70 cells = assay: Inhibition of proliferation of HCC70 cells (CyQUANT Direct Cell Proliferation Assay, 72 hour); format: cell-based, human; conditions: read-out: Inhibition of Proliferation of HCC70 Cells (calculated IC50)
# Method: HCC70 cells are a cell line derived from human triple negative breast cancer. […] Known CDK inhibitors dinaciclib or N-((1S,3R)-3-((5-chloro-4-(1H-indol-3-yl) pyrimidin-2-yl)amino)cyclohexyl)-5-((E)-4-(dimethylamino)but-2-enamido)picolinamide and triptolide were used as positive controls. […] The cells were cultured at 37° C. in a humidified chamber in the presence of 5% CO2. Proliferation assays were conducted over a 72 hour time period. CyQUANT® Direct Cell Proliferation Assay (Life Technologies, Chicago, IL USA) was used to assess the anti-proliferative effects of the compounds following manufacturer's directions and utilizing the reagents supplied with the CyQUANT® Direct Cell kit.
# CDK2/Cyclin E1 complex = CDK2/Cyclin E1 complex (Homo sapiens, UniProt P24941); assay: CDK2 inhibition assay (Caliper/LabChip EZ Reader kinase assay); format: biochemical; conditions: Table 1; CDK2/Cyclin E1 0.5 nM, ATP 2 mM, 35 min at 27° C.
# Procedure, shortened: as §1
# A673 cells = assay: Inhibition of proliferation of A673 cells (CyQUANT, 72 hour); format: cell-based, human; conditions: Homo sapiens, A673, 72 h, A673 cells, 72 hour, CyQUANT; read-out: Inhibition of Proliferation of A673 Cells (calculated IC50)
# Procedure, shortened: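 Human Ewing's sarcoma A673 cells in DMEM with 10% FBS and 1 mM sodium pyruvate, 37° C, 5% CO2, treated 72 h with compound from 4 μM to […] (0.5 log dilutions). Antiproliferative effect read by CyQUANT assay.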
# T1 sequence (Q9NYV4 686-1082, species assumed): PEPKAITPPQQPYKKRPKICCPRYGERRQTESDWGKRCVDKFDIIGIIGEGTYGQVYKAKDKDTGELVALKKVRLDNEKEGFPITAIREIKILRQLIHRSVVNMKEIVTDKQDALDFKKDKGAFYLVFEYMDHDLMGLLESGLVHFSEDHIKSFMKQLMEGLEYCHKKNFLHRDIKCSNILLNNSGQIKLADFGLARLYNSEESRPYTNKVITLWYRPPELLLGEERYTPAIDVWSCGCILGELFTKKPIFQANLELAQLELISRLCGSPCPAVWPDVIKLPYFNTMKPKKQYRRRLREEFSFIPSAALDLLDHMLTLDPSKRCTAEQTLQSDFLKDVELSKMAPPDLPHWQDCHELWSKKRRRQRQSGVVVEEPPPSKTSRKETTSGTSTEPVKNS
# T1 sequence (O75909 whole entry partner, species assumed, the tested form may be a part): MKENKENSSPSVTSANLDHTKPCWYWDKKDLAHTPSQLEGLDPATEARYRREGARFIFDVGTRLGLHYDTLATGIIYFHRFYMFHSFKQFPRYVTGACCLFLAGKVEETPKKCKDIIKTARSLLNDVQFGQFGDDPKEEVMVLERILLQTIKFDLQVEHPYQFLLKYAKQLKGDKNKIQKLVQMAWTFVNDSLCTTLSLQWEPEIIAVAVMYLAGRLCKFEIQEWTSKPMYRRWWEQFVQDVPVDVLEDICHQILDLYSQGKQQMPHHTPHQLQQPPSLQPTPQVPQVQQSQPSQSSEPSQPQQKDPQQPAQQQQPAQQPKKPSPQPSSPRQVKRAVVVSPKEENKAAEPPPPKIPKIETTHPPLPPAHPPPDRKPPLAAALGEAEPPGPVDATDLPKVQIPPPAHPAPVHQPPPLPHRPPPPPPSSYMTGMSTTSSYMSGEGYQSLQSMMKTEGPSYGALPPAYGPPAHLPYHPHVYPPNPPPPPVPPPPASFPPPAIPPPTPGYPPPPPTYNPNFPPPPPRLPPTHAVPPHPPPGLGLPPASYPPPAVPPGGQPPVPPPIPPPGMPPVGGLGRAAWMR
# CDK7/Cyclin H/MAT1 complex, sequence (P50613 whole entry, species assumed): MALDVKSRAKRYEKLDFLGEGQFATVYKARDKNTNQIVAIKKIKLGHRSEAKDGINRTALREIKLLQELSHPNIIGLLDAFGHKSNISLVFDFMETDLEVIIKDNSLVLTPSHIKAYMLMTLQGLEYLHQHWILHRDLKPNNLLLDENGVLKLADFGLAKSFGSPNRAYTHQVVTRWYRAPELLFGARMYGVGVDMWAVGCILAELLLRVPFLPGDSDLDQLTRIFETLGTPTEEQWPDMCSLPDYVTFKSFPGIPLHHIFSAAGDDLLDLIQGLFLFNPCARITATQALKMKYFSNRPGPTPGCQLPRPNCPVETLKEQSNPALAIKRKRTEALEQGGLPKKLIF
# CDK7/Cyclin H/MAT1 complex, sequence (P51946 whole entry partner, species assumed): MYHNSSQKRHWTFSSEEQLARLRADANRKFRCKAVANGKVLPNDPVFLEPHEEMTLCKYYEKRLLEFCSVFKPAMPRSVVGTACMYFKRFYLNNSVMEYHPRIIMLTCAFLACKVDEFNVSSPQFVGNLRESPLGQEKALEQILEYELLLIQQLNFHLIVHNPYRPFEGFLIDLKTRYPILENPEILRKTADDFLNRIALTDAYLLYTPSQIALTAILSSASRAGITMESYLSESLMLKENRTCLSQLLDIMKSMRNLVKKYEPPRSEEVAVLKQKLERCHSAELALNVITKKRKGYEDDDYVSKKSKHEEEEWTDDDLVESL
# CDK7/Cyclin H/MAT1 complex, sequence (P51948 whole entry partner, species assumed): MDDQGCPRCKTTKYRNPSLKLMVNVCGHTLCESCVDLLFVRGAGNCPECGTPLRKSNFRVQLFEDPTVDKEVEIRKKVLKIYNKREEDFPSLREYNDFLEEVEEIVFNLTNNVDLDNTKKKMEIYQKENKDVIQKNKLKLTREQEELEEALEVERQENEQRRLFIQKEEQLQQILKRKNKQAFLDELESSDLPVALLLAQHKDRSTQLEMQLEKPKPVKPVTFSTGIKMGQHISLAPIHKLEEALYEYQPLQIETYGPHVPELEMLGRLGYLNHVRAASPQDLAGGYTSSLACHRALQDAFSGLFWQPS
# CDK9/Cyclin T1 complex, sequence (P50750 whole entry, species assumed): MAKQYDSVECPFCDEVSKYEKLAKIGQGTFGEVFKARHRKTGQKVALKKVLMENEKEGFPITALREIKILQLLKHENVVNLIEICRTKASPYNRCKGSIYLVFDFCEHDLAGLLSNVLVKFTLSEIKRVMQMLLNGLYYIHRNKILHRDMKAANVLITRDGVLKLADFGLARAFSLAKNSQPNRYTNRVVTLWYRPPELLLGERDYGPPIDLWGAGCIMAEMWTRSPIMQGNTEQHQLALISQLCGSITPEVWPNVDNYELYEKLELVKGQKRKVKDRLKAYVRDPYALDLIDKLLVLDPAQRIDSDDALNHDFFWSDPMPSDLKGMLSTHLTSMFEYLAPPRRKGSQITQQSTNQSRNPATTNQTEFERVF
# CDK9/Cyclin T1 complex, sequence (O60563 whole entry partner, species assumed): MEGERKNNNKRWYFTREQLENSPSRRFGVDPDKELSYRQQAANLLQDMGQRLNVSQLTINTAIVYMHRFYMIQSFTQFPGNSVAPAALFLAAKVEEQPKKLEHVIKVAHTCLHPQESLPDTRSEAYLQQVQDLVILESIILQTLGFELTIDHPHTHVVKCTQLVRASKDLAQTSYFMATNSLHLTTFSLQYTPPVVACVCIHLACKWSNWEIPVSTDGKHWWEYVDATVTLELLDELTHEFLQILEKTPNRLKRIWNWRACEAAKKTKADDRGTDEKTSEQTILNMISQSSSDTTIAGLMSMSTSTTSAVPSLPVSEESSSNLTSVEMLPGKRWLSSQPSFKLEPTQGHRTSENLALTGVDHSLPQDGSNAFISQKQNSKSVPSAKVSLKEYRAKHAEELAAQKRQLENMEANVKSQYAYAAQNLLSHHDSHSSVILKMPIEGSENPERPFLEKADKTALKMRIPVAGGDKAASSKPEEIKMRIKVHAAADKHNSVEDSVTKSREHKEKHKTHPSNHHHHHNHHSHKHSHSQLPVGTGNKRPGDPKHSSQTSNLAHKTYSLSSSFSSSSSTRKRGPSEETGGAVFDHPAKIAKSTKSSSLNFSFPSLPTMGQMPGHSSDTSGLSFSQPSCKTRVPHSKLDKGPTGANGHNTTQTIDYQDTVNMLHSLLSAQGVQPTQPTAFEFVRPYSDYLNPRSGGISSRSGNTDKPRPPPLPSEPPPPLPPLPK
SMILES,IC50 [1] [nM],IC50 [2] [µM],IC50 (CDK9/Cyclin T1 complex) [µM],IC50 (HCC70 cells) [nM],IC50 (CDK2/Cyclin E1 complex) [µM],"IC50 (HCC70 cells; Homo sapiens, HCC70, 72 h) [nM]",IC50 (A673 cells) [nM]
OCc1cccc(-c2ccc3c(-c4nc(N[C@H]5CCCNC5)ncc4C(F)(F)F)c[nH]c3c2)n1 [Compound 316],< 20,0.2 to 5,> 5,100 to 1000,0.2 to 5,–,–
FC(F)(F)c1cnc(NC2CCCNC2)nc1-c1c[nH]c2cc(C=Cc3ccccc3)ccc12 (stereo not shown) [Compound 317],20 to 200,0.2 to 5,–,–,–,1000 to 5000,–
FC(F)(F)c1cc2[nH]cc(-c3ccc4c(-c5nc(N[C@H]6CCCNC6)ncc5C(F)(F)F)c[nH]c4c3)c2cn1 [Compound 319],20 to 200,0.2 to 5,–,1000 to 5000,–,–,–
FC(F)(F)c1cnc(N[C@H]2CCCNC2)nc1-c1c[nH]c2cc(-c3ccc4ccncc4c3)ccc12 [Compound 325],20 to 200,0.2 to 5,–,100 to 1000,–,–,–
NS(=O)(=O)c1ccc(-c2ccc3c(-c4nc(N[C@H]5CCCNC5)ncc4C(F)(F)F)c[nH]c3c2)cc1 [Compound 331],20 to 200,0.2 to 5,–,100 to 1000,–,–,–
CCOc1ccccc1-c1ccc2c(-c3nc(NC4CCCNC4)ncc3C(F)(F)F)c[nH]c2c1 (stereo not shown) [Compound 327],20 to 200,0.2 to 5,–,–,–,100 to 1000,–
FC(F)(F)c1cnc(N[C@H]2CCCNC2)nc1-c1c[nH]c2cc(-c3ccc4cn[nH]c4c3)ccc12 [Compound 329],20 to 200,0.2 to 5,–,–,–,100 to 1000,–
N#Cc1cc(-c2ccc3c(-c4nc(N[C@H]5CCCNC5)ncc4C(F)(F)F)c[nH]c3c2)ccc1O [Compound 315],20 to 200,0.2 to 5,–,1000 to 5000,–,–,–
Cn1ncc2ccc(-c3ccc4c(-c5nc(N[C@H]6CCCNC6)ncc5C(F)(F)F)c[nH]c4c3)cc21 [Compound 337],20 to 200,0.2 to 5,–,100 to 1000,–,–,–
OCCc1cccc(-c2ccc3c(-c4nc(N[C@H]5CCCNC5)ncc4C(F)(F)F)c[nH]c3c2)c1 [Compound 324],20 to 200,0.2 to 5,–,100 to 1000,–,–,–
Cn1cc(-c2ccc3c(-c4nc(N[C@H]5CCCNC5)ncc4C(F)(F)F)c[nH]c3c2)c2cnc(C(F)(F)F)cc21 [Compound 320],20 to 200,0.2 to 5,–,–,–,1000 to 5000,–
CCS(=O)(=O)c1ccc2c(-c3nc(N[C@H]4CCCNC4)ncc3C(F)(F)F)c[nH]c2c1 [Compound 274],< 20,0.2 to 5,0.2 to 5,–,0.2 to 5,–,20 to 200
"Clc1cnc(N[C@@H]2CN3CCC2CC3)nc1-c1c[nH]c2ccccc12 [Compound 131, (S)—N-(5-chloro-4-(1H-indol-3-yl)pyrimidin-2-yl)quinuclidin-3-amine]",> 5000,> 5,> 5,–,> 5,–,200 to 5000
"CSc1cnc(N[C@H]2CCCNC2)nc1-c1c[nH]c2cc(C#N)ccc12 [Compound 272, 3-[5-methylsulfanyl-2-[[(3S)-3-piperidyl]amino]pyrimidin-4-yl]-1H-indole-6-carbonitrile]",< 20,0.2 to 5,0.2 to 5,–,0.2 to 5,–,20 to 200
O=C(C1CCC(Nc2ncc(C(F)(F)F)c(-c3c[nH]c4ccccc34)n2)CN1)N1CCC(O)C1 (mixture of isomers) [Compound 244],20 to 200,0.2 to 5,> 5,–,0.2 to 5,–,200 to 5000
